Assay results taken from ChEMBL document CHEMBL4715874, “In Vivo Screening of Xanthones from Garcinia oligantha Identified Oliganthin H as a Novel Natural Inhibitor of Convulsions” (J Nat Prod, 2020).

Experiments:
Danio rerio [1] = species on record: Danio rerio; test: Anticonvulsant activity in AB zebra fish larvae assessed as PTZ-induced calb2 mRNA expression at 25 uM pretreated for 6 hrs followed by PTZ-stimulation and measured after 30 mins by qRT-PCR analysis (reference value: 0.88 +/- 0.39%); type: functional; conditions: time 6.5 hrs
Danio rerio [2] = species on record: Danio rerio; test: Anticonvulsant activity in AB zebra fish larvae assessed as PTZ-induced velocity at 25 uM pretreated for 6 hrs followed by PTZ-stimulation and measured every 5 mins for 30 mins (reference value: 0.63 +/- 0.23 mm/s); type: functional; conditions: time 6.5 hrs
[3] = Effect of pvalb5 mRNA expression in AB zebra fish larvae at 25 uM after 6 hrs by qRT-PCR analysis (reference value: 1 +/- 0.07%); type: ADME, Danio rerio; conditions: zebrafish
Danio rerio [4] = species on record: Danio rerio; test: Anticonvulsant activity in AB zebra fish larvae assessed as PTZ-induced number of burst at 12.5 uM pretreated for 6 hrs followed by PTZ-stimulation and measured every 5 mins for 30 mins (reference value: 9.25 +/- 6.36); type: functional; conditions: time 6.5 hrs
Danio rerio [5] = species on record: Danio rerio; test: Anticonvulsant activity in AB zebra fish larvae assessed as PTZ-induced ABAT mRNA expression at 25 uM pretreated for 6 hrs followed by PTZ-stimulation and measured after 30 mins by qRT-PCR analysis (reference value: 2.16 +/- 1.2%); type: functional; conditions: time 6.5 hrs
Danio rerio [6] = species on record: Danio rerio; test: Anticonvulsant activity in AB zebra fish larvae assessed as PTZ-induced npas4a mRNA expression at 25 uM pretreated for 6 hrs followed by PTZ-stimulation and measured after 30 mins by qRT-PCR analysis (reference value: 25.34 +/- 3.28%); type: functional; conditions: time 6.5 hrs
[7] = Effect of calb2 mRNA expression in AB zebra fish larvae at 25 uM after 6 hrs by qRT-PCR analysis (reference value: 1.02 +/- 0.33%); type: ADME, Danio rerio; conditions: zebrafish
[8] = Effect of GLSA mRNA expression in AB zebra fish larvae at 25 uM after 6 hrs by qRT-PCR analysis (reference value: 1 +/- 0.18%); type: ADME, Danio rerio; conditions: zebrafish
[9] = Neurotoxicity in AB zebra fish larvae assessed as decrease in total swimming distance at <= MTC after 6 hrs; type: toxicity, Danio rerio; conditions: zebrafish
Danio rerio [10] = species on record: Danio rerio; test: Anticonvulsant activity in AB zebra fish larvae assessed as PTZ-induced number of burst at 25 uM pretreated for 6 hrs followed by PTZ-stimulation and measured every 5 mins for 30 mins (reference value: 9.25 +/- 6.36); type: functional; conditions: time 6.5 hrs
Danio rerio [11] = species on record: Danio rerio; test: Anticonvulsant activity in AB zebra fish larvae assessed as PTZ-induced PRKACB mRNA expression at 25 uM pretreated for 6 hrs followed by PTZ-stimulation and measured after 30 mins by qRT-PCR analysis (reference value: 1.49 +/- 0.69%); type: functional; conditions: time 6.5 hrs
[12] = Effect of gat1 mRNA expression in AB zebra fish larvae at 25 uM after 6 hrs by qRT-PCR analysis (reference value: 1.03 +/- 0.38%); type: ADME, Danio rerio; conditions: zebrafish
Danio rerio [13] = species on record: Danio rerio; test: Anticonvulsant activity in AB zebra fish larvae assessed as PTZ-induced glud1a mRNA expression at 25 uM pretreated for 6 hrs followed by PTZ-stimulation and measured after 30 mins by qRT-PCR analysis (reference value: 1.67 +/- 0.4%); type: functional; conditions: time 6.5 hrs
Danio rerio [14] = species on record: Danio rerio; test: Anticonvulsant activity in AB zebra fish larvae assessed as PTZ-induced gad1 mRNA expression at 25 uM pretreated for 6 hrs followed by PTZ-stimulation and measured after 30 mins by qRT-PCR analysis (reference value: 5.45 +/- 1.77%); type: functional; conditions: time 6.5 hrs
[15] = Effect of BDNF mRNA expression in AB zebra fish larvae at 25 uM after 6 hrs by qRT-PCR analysis (reference value: 1.01 +/- 0.21%); type: ADME, Danio rerio; conditions: zebrafish
Danio rerio [16] = species on record: Danio rerio; test: Anticonvulsant activity in AB zebra fish larvae assessed as PTZ-induced gabra1 mRNA expression at 25 uM pretreated for 6 hrs followed by PTZ-stimulation and measured after 30 mins by qRT-PCR analysis (reference value: 19.68 +/- 3.28%); type: functional; conditions: time 6.5 hrs
Danio rerio [17] = species on record: Danio rerio; test: Anticonvulsant activity in AB zebra fish larvae assessed as reduction in PTZ-induced convulsant behavior by measuring swimming distance at 12.5 uM pretreated for 6 hrs followed by PTZ-stimulation and measured every 5 mins for 1 hr relative to control; type: functional; design: scale not given: the % may be the effect or the level left; conditions: time 7 hrs
Danio rerio [18] = species on record: Danio rerio; test: Anticonvulsant activity in AB zebra fish larvae assessed as PTZ-induced velocity at 12.5 uM pretreated for 6 hrs followed by PTZ-stimulation and measured every 5 mins for 30 mins (reference value: 0.63 +/- 0.23 mm/s); type: functional; conditions: time 6.5 hrs
Danio rerio [19] = species on record: Danio rerio; test: Anticonvulsant activity in AB zebra fish larvae assessed as PTZ-induced velocity at 6.2 uM pretreated for 6 hrs followed by PTZ-stimulation and measured every 5 mins for 30 mins (reference value: 0.63 +/- 0.23 mm/s); type: functional; conditions: time 6.5 hrs
Danio rerio [20] = species on record: Danio rerio; test: Anticonvulsant activity in AB zebra fish larvae assessed as PTZ-induced seizure duration time at 6.2 uM pretreated for 6 hrs followed by PTZ-stimulation and measured every 5 mins for 30 mins (reference value: 0.32 +/- 0.31 s); type: functional; conditions: time 6.5 hrs
Danio rerio [21] = species on record: Danio rerio; test: Anticonvulsant activity in AB zebra fish larvae assessed as PTZ-induced seizure activity at 6.2 uM pretreated for 6 hrs followed by PTZ-stimulation and measured every 5 mins for 30 mins (reference value: 14.13 +/- 0.004 mm); type: functional; conditions: time 6.5 hrs
Danio rerio [22] = species on record: Danio rerio; test: Anticonvulsant activity in AB zebra fish larvae assessed as PTZ-induced seizure activity at 12.5 uM pretreated for 6 hrs followed by PTZ-stimulation and measured every 5 mins for 30 mins (reference value: 14.13 +/- 0.004 mm); type: functional; conditions: time 6.5 hrs
[23] = Effect of gad1 mRNA expression in AB zebra fish larvae at 25 uM after 6 hrs by qRT-PCR analysis (reference value: 1 +/- 0.11%); type: ADME, Danio rerio; conditions: zebrafish
Danio rerio [24] = species on record: Danio rerio; test: Anticonvulsant activity in AB zebra fish larvae assessed as PTZ-induced gat1 mRNA expression at 25 uM pretreated for 6 hrs followed by PTZ-stimulation and measured after 30 mins by qRT-PCR analysis (reference value: 1.63 +/- 0.28%); type: functional; conditions: time 6.5 hrs
Danio rerio [25] = species on record: Danio rerio; test: Anticonvulsant activity in AB zebra fish larvae assessed as PTZ-induced number of burst at 6.2 uM pretreated for 6 hrs followed by PTZ-stimulation and measured every 5 mins for 30 mins (reference value: 9.25 +/- 6.36); type: functional; conditions: time 6.5 hrs

Work on `CC(C)=CCC/C(C)=C/C[C@@]1(CC=C(C)C)C(=O)C(O)=C(O)c2oc3c4c(cc(O)c3c(=O)c21)OC(C)(C)C=C4` yielded an Activity (Danio rerio [1]) of 0.97%, an Activity (Danio rerio [2]) of 0.8 millimeter/sec and an Activity [3] of 0.86%. It also gave an Activity (Danio rerio [4]) of 153.5, an Activity (Danio rerio [5]) of 0.53% and an Activity (Danio rerio [6]) of 0.89%. The Activity [7] was 0.86%, the Activity [8] was 0.78% and the Activity [9] was “Non-Toxic”. The Activity (Danio rerio [10]) was 142.3, the Activity (Danio rerio [11]) was 1.21% and the Activity [12] was 0.87%. It also gave an Activity (Danio rerio [13]) of 1.24%, an Activity (Danio rerio [14]) of 1.08% and an Activity [15] of 1.14%. The Activity (Danio rerio [16]) was 1.34%, the Activity (Danio rerio [17]) was 25% and the Activity (Danio rerio [18]) was 0.86 millimeter/sec. The Activity (Danio rerio [19]) was 1.2 millimeter/sec, the Time (Danio rerio [20]) was 18.46 s and the Activity (Danio rerio [21]) was 1210 mm. It also gave an Activity (Danio rerio [22]) of 600.8 mm, an Activity [23] of 1.31% and an Activity (Danio rerio [24]) of 1.13%. For the same molecule, the Activity (Danio rerio [25]) was 287.3.
